Measured values taken from ChEMBL document CHEMBL1201862, “PubChem BioAssay data set” (2004).
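Five compound concentrations were applied to cells in 96-well plates for 48 hours; endpoints were derived by simple linear interpolation of the resulting dose-response curve. GI50 marks 50% less growth.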 Activity calls are given as the source filed them. No stated cut-off is given here; in the data, active = GI50 up to about 1.1 µM and inactive = higher.

What was measured:
Test in all cases: growth of human tumour cells (NCI), 48 h
DMS-273 = test system: DMS-273
UO-31 = test system: UO-31
UACC-62 = test system: UACC-62
SF-295 = test system: SF-295
EKVX = test system: EKVX
SN12C = test system: SN12C
SF-539 = test system: SF-539
U-251 = test system: U-251
NCI-H226 = test system: NCI-H226
UACC-257 = test system: UACC-257
SK-MEL-5 = test system: SK-MEL-5
HCT-15 = test system: HCT-15
ACHN = test system: ACHN
NCI-H460 = test system: NCI-H460
OVCAR-8 = test system: OVCAR-8
HT-29 = test system: HT-29
KM12 = test system: KM12
HCT-116 = test system: HCT-116

COc1ccc(OC)c(NC(=O)CCC/C(CC(=O)c2ccc(O)c(OC)c2)=N\NC(=O)C[N+](C)(C)C)c1
GI50 (DMS-273): > 100 µM (inactive)
GI50 (UO-31): > 100 µM (inactive)
GI50 (UACC-62): > 100 µM (inactive)
GI50 (SF-295): > 100 µM (inactive)
GI50 (EKVX): > 100 µM (inactive)
GI50 (SN12C): > 100 µM (inactive)
GI50 (SF-539): > 100 µM (inactive)
GI50 (U-251): > 100 µM (inactive)
GI50 (NCI-H226): > 100 µM (inactive)
GI50 (UACC-257): > 100 µM (inactive)
GI50 (SK-MEL-5): > 100 µM (inactive)
GI50 (HCT-15): > 100 µM
GI50 (ACHN): > 100 µM (inactive)
GI50 (NCI-H460): > 100 µM (inactive)
GI50 (OVCAR-8): > 100 µM (inactive)
GI50 (HT-29): > 100 µM (inactive)
GI50 (KM12): > 100 µM (inactive)

Cc1cc(NS(=O)(=O)c2ccc(Nc3c4ccccc4nc4c(C(=O)Nc5ccc(S(=O)(=O)N=C(N)N)cc5)ccc(Cl)c34)cc2)no1
GI50 (DMS-273): 40.6 µM (inactive)
GI50 (UO-31): 34.5 µM (inactive)
GI50 (UACC-62): 25.1 µM (inactive)
GI50 (SF-295): 73.3 µM (inactive)
GI50 (EKVX): 65 µM (inactive)
GI50 (SN12C): 31.2 µM (inactive)
GI50 (SF-539): 18.5 µM (inactive)
GI50 (U-251): 28.6 µM (inactive)
GI50 (NCI-H226): 28.2 µM (inactive)
GI50 (UACC-257): > 100 µM (inactive)
GI50 (SK-MEL-5): > 100 µM (inactive)
GI50 (HCT-116): 53.8 µM (inactive)
GI50 (ACHN): 60.5 µM (inactive)
GI50 (NCI-H460): 98.9 µM (inactive)
GI50 (OVCAR-8): 19.3 µM (inactive)
GI50 (HT-29): 49.7 µM (inactive)
GI50 (KM12): 87.9 µM (inactive)

CC1CC(C)C(=O)C(C(=O)CC2CC(=O)NC2=O)C1 (centres undefined)
GI50 (DMS-273): > 100 µM (inactive)
GI50 (UO-31): > 100 µM (inactive)
GI50 (UACC-62): > 100 µM (inactive)
GI50 (SF-295): > 100 µM (inactive)
GI50 (EKVX): > 100 µM (inactive)
GI50 (SN12C): > 100 µM (inactive)
GI50 (SF-539): > 100 µM (inactive)
GI50 (U-251): > 100 µM (inactive)
GI50 (NCI-H226): > 100 µM (inactive)
GI50 (UACC-257): > 100 µM (inactive)
GI50 (HCT-116): > 100 µM (inactive)
GI50 (ACHN): > 100 µM (inactive)
GI50 (NCI-H460): > 100 µM (inactive)
GI50 (OVCAR-8): > 100 µM (inactive)
GI50 (HT-29): > 100 µM (inactive)
GI50 (KM12): > 100 µM (inactive)

[O-][S+]1CSCS1 (centres undefined)
GI50 (DMS-273): > 100 µM (inactive)
GI50 (UO-31): > 100 µM (inactive)
GI50 (UACC-62): > 100 µM (inactive)
GI50 (SF-295): > 100 µM (inactive)
GI50 (EKVX): > 100 µM (inactive)
GI50 (SN12C): > 100 µM (inactive)
GI50 (SF-539): > 100 µM (inactive)
GI50 (U-251): > 100 µM (inactive)
GI50 (NCI-H226): > 100 µM (inactive)
GI50 (UACC-257): > 100 µM (inactive)
GI50 (SK-MEL-5): > 100 µM (inactive)
GI50 (HCT-116): > 100 µM (inactive)
GI50 (ACHN): > 100 µM (inactive)
GI50 (OVCAR-8): > 100 µM (inactive)
GI50 (HT-29): > 100 µM (inactive)
GI50 (KM12): > 100 µM (inactive)

COc1ccc(N(C)Sc2ccccc2)cc1
GI50 (DMS-273): 34.4 µM (inactive)
GI50 (UO-31): 34.8 µM (inactive)
GI50 (UACC-62): 34.7 µM (inactive)
GI50 (SF-295): 55.1 µM (inactive)
GI50 (SN12C): 21.1 µM (inactive)
GI50 (SF-539): 20.4 µM (inactive)
GI50 (U-251): 32.8 µM (inactive)
GI50 (UACC-257): 37 µM (inactive)
GI50 (SK-MEL-5): 47.4 µM (inactive)
GI50 (HCT-15): 38.1 µM
GI50 (HCT-116): 43.7 µM (inactive)
GI50 (NCI-H460): 74.5 µM (inactive)
GI50 (OVCAR-8): 49.9 µM (inactive)
GI50 (KM12): 56.6 µM (inactive)

O=C(c1nc2ccc(Cl)cc2[nH]c1=O)C(O)c1ccco1 (centres undefined)
GI50 (DMS-273): 35.5 µM (inactive)
GI50 (UO-31): 42.9 µM (inactive)
GI50 (UACC-62): 40.4 µM (inactive)
GI50 (SF-295): > 100 µM (inactive)
GI50 (EKVX): > 100 µM (inactive)
GI50 (SF-539): 38.1 µM (inactive)
GI50 (NCI-H226): > 100 µM (inactive)
GI50 (UACC-257): > 100 µM (inactive)
GI50 (SK-MEL-5): 25.5 µM (inactive)
GI50 (HCT-15): 15.5 µM
GI50 (HCT-116): 46.7 µM (inactive)
GI50 (ACHN): 38.6 µM (inactive)
GI50 (NCI-H460): 57.9 µM (inactive)
GI50 (HT-29): 83.6 µM (inactive)

O=C(c1ccc(Cl)cc1)c1ccc(OCCCOc2ccc(C(=O)c3ccc(Cl)cc3)cc2)cc1
GI50 (DMS-273): > 100 µM (inactive)
GI50 (UACC-62): > 100 µM (inactive)
GI50 (SF-295): > 100 µM (inactive)
GI50 (EKVX): > 100 µM (inactive)
GI50 (SN12C): > 100 µM (inactive)
GI50 (SF-539): > 100 µM (inactive)
GI50 (U-251): > 100 µM (inactive)
GI50 (NCI-H226): > 100 µM (inactive)
GI50 (UACC-257): > 100 µM (inactive)
GI50 (SK-MEL-5): > 100 µM (inactive)
GI50 (HCT-15): > 100 µM
GI50 (HCT-116): > 100 µM (inactive)
GI50 (ACHN): > 100 µM (inactive)
GI50 (NCI-H460): > 100 µM (inactive)
GI50 (OVCAR-8): > 100 µM (inactive)
GI50 (HT-29): > 100 µM (inactive)
GI50 (KM12): > 100 µM (inactive)

COc1ccc(C(=O)NCCC2=CCCCC2)cc1
GI50 (DMS-273): > 100 µM (inactive)
GI50 (UACC-62): > 100 µM (inactive)
GI50 (SF-295): > 100 µM (inactive)
GI50 (EKVX): > 100 µM (inactive)
GI50 (SN12C): > 100 µM (inactive)
GI50 (SF-539): > 100 µM (inactive)
GI50 (U-251): > 100 µM (inactive)
GI50 (UACC-257): > 100 µM (inactive)
GI50 (SK-MEL-5): > 100 µM (inactive)
GI50 (HCT-15): > 100 µM
GI50 (HCT-116): > 100 µM (inactive)
GI50 (ACHN): > 100 µM (inactive)
GI50 (NCI-H460): > 100 µM (inactive)
GI50 (OVCAR-8): > 100 µM (inactive)
GI50 (HT-29): > 100 µM (inactive)
GI50 (KM12): > 100 µM (inactive)

COc1ccc(O)c(C(=O)CCC(=O)O)c1
GI50 (DMS-273): > 100 µM (inactive)
GI50 (UO-31): > 100 µM (inactive)
GI50 (UACC-62): > 100 µM (inactive)
GI50 (SF-295): > 100 µM (inactive)
GI50 (EKVX): > 100 µM (inactive)
GI50 (SN12C): > 100 µM (inactive)
GI50 (SF-539): > 100 µM (inactive)
GI50 (U-251): > 100 µM (inactive)
GI50 (NCI-H226): > 100 µM (inactive)
GI50 (UACC-257): 15.6 µM (inactive)
GI50 (SK-MEL-5): > 100 µM (inactive)
GI50 (HCT-15): > 100 µM
GI50 (ACHN): > 100 µM (inactive)
GI50 (NCI-H460): > 100 µM (inactive)
GI50 (OVCAR-8): > 100 µM (inactive)
GI50 (HT-29): > 100 µM (inactive)
GI50 (KM12): > 100 µM (inactive)
